{"source": "patent US8093278B2", "about": "“Substituted indoles” (AstraZeneca AB, priority 2002, dated 2012)", "key": {"rhCRTh2": {"target": "T1, rhCRTh2 (Homo sapiens, UniProt Q9Y5Y4)", "T1 construct": "expressed in transfected cells; host or cells: HEK cells (membrane preparation)", "T1 sequence (Q9Y5Y4 1-395)": "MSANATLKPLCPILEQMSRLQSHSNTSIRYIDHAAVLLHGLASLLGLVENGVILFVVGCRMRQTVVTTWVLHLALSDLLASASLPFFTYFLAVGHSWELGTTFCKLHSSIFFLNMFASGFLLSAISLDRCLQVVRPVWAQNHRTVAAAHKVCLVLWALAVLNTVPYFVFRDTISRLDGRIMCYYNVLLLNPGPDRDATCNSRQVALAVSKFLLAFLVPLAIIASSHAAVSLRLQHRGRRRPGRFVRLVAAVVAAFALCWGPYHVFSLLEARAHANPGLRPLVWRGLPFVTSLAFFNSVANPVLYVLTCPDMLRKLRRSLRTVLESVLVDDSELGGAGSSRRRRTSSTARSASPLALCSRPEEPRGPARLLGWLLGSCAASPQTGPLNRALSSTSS", "assay": "Ligand Binding Assay ([3H]PGD2 SPA, HEK cell membranes)", "settings": "[3H]PGD2 displacement, HEK membranes expressing rhCRTh2/Gα16, SPA beads, 2 hours room temperature", "method": "• 1) Gassmann, Berge, T. J., Gilbert, D. P., Berkeley, W. C., JACS, 96, 5495-5508, (1974). Pharmacological Data Ligand Binding Assay\n[^3H]PGD2 was purchased from Perkin Elmer Life Sciences with a specific activity of 100-210 Ci/mmol. All other chemicals were of analytical grade.\nHEK cells expressing rhCRTh2/Gα16 were routinely maintained in DMEM containing 10% Foetal Bovine Serum (HyClone), 1 mg/ml geneticin, 2 mM L-glutamine and 1% non-essential amino acids. For the preparation of membranes, the adherent transfected HEK cells were grown to confluence in two layer tissue culture factories (Fisher, catalogue number TKT-170-070E). Maximal levels of receptor expression were induced by addition of […] sodium butyrate for the last 18 hours of culture. The adherent cells were washed once with phosphate buffered saline (PBS, 50 ml per cell factory) and detached by the addition of 50 ml per cell factory of ice-cold membrane homogenisation buffer [20 mM HEPES (pH 7.4), 0.1 mM dithiothreitol, 1 mM EDTA, 0.1 mM phenyl methyl sulphonyl fluoride and 100 μg/ml bacitracin]. […] The final pellet was re-suspended in 4 ml of membrane homogenisation buffer per cell factory used and the protein content determined. […]\nAll assays were performed in Corning clear bottomed, white 96-well NBS plates (Fisher). […] (The optimum coating concentrations were determined for each batch of membranes) The beads were pelleted by centrifugation (800×g for 7 minutes at 4° C.), washed once with assay buffer (50 mM HEPES pH 7.4 containing 5 mM magnesium chloride) and finally re-suspended in assay buffer at a bead concentration of 10 mg/ml.\nEach assay contained 20 μl of 6.25 nM [^3H]PGD2, 20 μl membrane saturated SPA beads both in assay buffer and 10 μl of compound solution or 13,14-dihydro-15-keto prostaglandin D2 (DK-PGD2, for determination of non-specific binding, Cayman chemical company). […] The assay plate was incubated at room temperature for 2 hours and counted on a Wallac Microbeta liquid scintillation counter (1 minute per well)."}}, "note": "Structures can show the parent of a compound that is named as a salt."}
{"compound": "Cc1ccc2c(c1)c(-c1ccnc3ccccc13)c(C)n2CC(=O)O", "note": "[Example 14, 2,5-dimethyl-3-(4-quinolinyl)-1H-indole-1-acetic acid, sodium salt]", "values": [{"measurement": "IC50", "setting": "rhCRTh2", "value": 0.02, "unit": "µM"}]}
{"compound": "Cc1c(-c2nsc3ccccc23)c2cc(F)ccc2n1CC(=O)O", "note": "[Example 36, 3-(1,2-benzisothiazol-3-yl)-5-fluoro-2-methyl-1H-indole-1-acetic acid]", "values": [{"measurement": "IC50", "setting": "rhCRTh2", "value": 0.00708, "unit": "µM"}]}
{"compound": "Cc1c(-c2ccnc3cc(Cl)ccc23)c2cc(NS(C)(=O)=O)ccc2n1CC(=O)O", "note": "[Example 46, 3-(7-Chloro-4-quinolinyl)-2-methyl-5-[(methylsulfonyl)amino]-1H-indole-1-acetic acid]", "values": [{"measurement": "melting point", "value": "195 to 198", "unit": "°C"}]}
{"compound": "O=C(O)Cn1c(CO)c(-c2ccnc3cc(Cl)ccc23)c2cc(Cl)ccc21", "note": "[Example 55, 5-Chloro-3-(7-chloro-4-quinolinyl)-2-(hydroxymethyl)-1H-indole-1-acetic acid]", "values": [{"measurement": "IC50", "setting": "rhCRTh2", "value": 0.0537, "unit": "µM"}]}
